The results in this text go back to article PMC12257299 (RSC Advances, 2025).

The target in the assay is GSK-3β (Homo sapiens, UniProt P49841). In words: ADP-Glo kinase assay with Promega GSK-3β enzyme. Format: biochemical.

The term IC50 denotes the concentration that gives 50% inhibition.

Sequence of GSK-3β (P49841 whole entry): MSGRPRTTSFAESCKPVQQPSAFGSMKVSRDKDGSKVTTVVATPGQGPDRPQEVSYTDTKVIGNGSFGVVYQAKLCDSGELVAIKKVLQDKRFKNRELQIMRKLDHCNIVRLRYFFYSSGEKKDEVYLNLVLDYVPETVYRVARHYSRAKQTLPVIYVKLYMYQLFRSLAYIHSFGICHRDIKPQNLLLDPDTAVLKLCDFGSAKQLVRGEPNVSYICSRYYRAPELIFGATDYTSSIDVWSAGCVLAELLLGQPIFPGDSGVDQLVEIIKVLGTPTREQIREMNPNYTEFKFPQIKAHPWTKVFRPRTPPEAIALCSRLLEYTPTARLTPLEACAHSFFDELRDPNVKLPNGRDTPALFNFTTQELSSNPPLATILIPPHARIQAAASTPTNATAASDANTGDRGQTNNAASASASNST

As for `COc1ccc(Cn2cc(CN3C(=O)C(=NNc4ccccc4)c4ccccc43)nn2)cc1` [6Ec, 1-((1-(4-Methoxybenzyl)-1H-1,2,3-triazol-4-yl)methyl)-3-(2-phenylhydrazono) indolin-2-one], the IC50 was found to be 59.8 µM.
